From the supplement of paper PMC11208160

Assay: recombinant UMI read abundance after kanamycin selection (control-corrected) (log10(CPM+1)); higher = more efficient recombination; extreme values may be limits of the assay; sequences stand for … in AGTGCAGAGAAAATCGGCCAGTTTTCTCTGCCTGCAGTCCGCATGCCGTGGGACCCCTTGGGTTCTAACCTGTTGCCTAGATTTATGCAGCGGACTGCCTTTCTCCCAAAGTGATAAACCGG…AGGTTGGTTTCACT; site = the 11-nt donor
Method in brief: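 Counts of recombinant UMIs were reported as log10(CPM+1). Before that, they were converted to CPM, averaged over replicates and scaled using control-derived factors. They came from PCR across the donor–target junction after Escherichia coli carrying the pair library and target plasmid was plated on IPTG (0.07 mM) plus kanamycin, or unselected, in two replicates each.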
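Note: IS621 bridge recombinase in Escherichia coli cells against a fixed T5 target plasmid.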

Point of comparison: “TATGCGGCATGGACCGGTTTTCCCGGTAATCCGTATTTGAT (site TATGCGGCTAT)”, “recombinant UMI read abundance (log10)” value 0.581. Against it:
- TATCTAGCATGGACCGGTTTTCCCGGTAATCCGTATTTGAA (site TAACTAGCTTT) — lower, 0.0105
- TATCTAGCATGGACCGGTTTTCCCGGTAATCCGTATTTGAA (site TACCTAGCTTT) — lower, 0.131
- TATCTAGCATGGACCGGTTTTCCCGGTAATCCGTATTTGAA (site TAGCTAGCTTT) — lower, 0.00935
- TATCTAGCATGGACCGGTTTTCCCGGTAATCCGTATTTGAA (site TATCTAGCTTT) — within 0.2 log units, 0.502
- TATCTATCATGGACCGGTTTTCCCGGTAATCCGTATTTGTC (site TATCTATCTGA) — higher, 1.59
- TATCTCGCATGGACCGGTTTTCCCGGTAATCCGTATTTGCA (site TATCTCGCTTG) — lower, 0.374
- TATCTGGCATGGACCGGTTTTCCCGGTAATCCGTATTTGTG (site TATATGGCTCA) — lower, 0.0189
- TATCTGGCATGGACCGGTTTTCCCGGTAATCCGTATTTGTG (site TATCTGGCTCA) — lower, 0.0196
- TATCTGGCATGGACCGGTTTTCCCGGTAATCCGTATTTGTG (site TATGTGGCTCA) — lower, 0.00259
- TATCTGGCATGGACCGGTTTTCCCGGTAATCCGTATTTGTG (site TATTTGGCTCA) — lower, 0.00973
- TATGCTACATGGACCGGTTTTCCCGGTAATCCGTATTTGGC (site TATGCTACTGC) — lower, 0.253
- TATGGGCCATGGACCGGTTTTCCCGGTAATCCGTATTTGCT (site TATGGGCCTAG) — lower, 0
- TATGGTACATGGACCGGTTTTCCCGGTAATCCGTATTTGGC (site TATGGTACTGC) — higher, 1.67
- TATGTACCATGGACCGGTTTTCCCGGTAATCCGTATTTGGT (site TATGTACCTAC) — lower, 0.011
- TATGTCTCATGGACCGGTTTTCCCGGTAATCCGTATTTGCC (site TATGTCTCTGG) — higher, 2.6
- TATTAGGCATGGACCGGTTTTCCCGGTAATCCGTATTTGTG (site TATTAGGCTCA) — within 0.2 log units, 0.459
- TATTAGGCATGGACCGGTTTTCCCGGTAATCCGTATTTGTG (site TATTCGGCTCA) — lower, 0.00717
- TATTAGGCATGGACCGGTTTTCCCGGTAATCCGTATTTGTG (site TATTGGGCTCA) — lower, 0
- TATTAGGCATGGACCGGTTTTCCCGGTAATCCGTATTTGTG (site TATTTGGCTCA) — lower, 0.0156
- TATTATCCATGGACCGGTTTTCCCGGTAATCCGTATTTGCT (site AATTATCCTAG) — within 0.2 log units, 0.494
- TATTATCCATGGACCGGTTTTCCCGGTAATCCGTATTTGCT (site CATTATCCTAG) — lower, 0
- TATTATCCATGGACCGGTTTTCCCGGTAATCCGTATTTGCT (site GATTATCCTAG) — lower, 0
- TATTATCCATGGACCGGTTTTCCCGGTAATCCGTATTTGCT (site TATTATCCTAG) — within 0.2 log units, 0.622
- TATTATGCATGGACCGGTTTTCCCGGTAATCCGTATTTGGA (site AATTATGCTTC) — lower, 0.364
- TATTATGCATGGACCGGTTTTCCCGGTAATCCGTATTTGGA (site CATTATGCTTC) — within 0.2 log units, 0.525
- TATTATGCATGGACCGGTTTTCCCGGTAATCCGTATTTGGA (site GATTATGCTTC) — lower, 0.00418
- TATTATGCATGGACCGGTTTTCCCGGTAATCCGTATTTGGA (site TATTATGCTTC) — lower, 0.177
- TATTCGCCATGGACCGGTTTTCCCGGTAATCCGTATTTGGG (site TATTCGCCTCC) — lower, 0.0547
- TATTGACCATGGACCGGTTTTCCCGGTAATCCGTATTTGCG (site TATTGACCTCG) — lower, 0.00685
- TATTGGACATGGACCGGTTTTCCCGGTAATCCGTATTTGAC (site AATTGGACTGT) — lower, 0
- TATTGGACATGGACCGGTTTTCCCGGTAATCCGTATTTGAC (site CATTGGACTGT) — within 0.2 log units, 0.701
- TATTGGACATGGACCGGTTTTCCCGGTAATCCGTATTTGAC (site GATTGGACTGT) — lower, 0.0156
- TATTGGACATGGACCGGTTTTCCCGGTAATCCGTATTTGAC (site TATTGGACTGT) — higher, 1.68
- TATTTCCCATGGACCGGTTTTCCCGGTAATCCGTATTTGTG (site TATTTCCCTCA) — lower, 0.213
- TATTTCGCATGGACCGGTTTTCCCGGTAATCCGTATTTGTG (site TATTTAGCTCA) — lower, 0.00938
- TATTTCGCATGGACCGGTTTTCCCGGTAATCCGTATTTGTG (site TATTTCGCTCA) — lower, 0.00881
- TATTTCGCATGGACCGGTTTTCCCGGTAATCCGTATTTGTG (site TATTTGGCTCA) — lower, 0
